Results reported in patent US10801077B2, “Influenza A virus variants” (Vertex Pharmaceuticals Incorporated, priority 2014, dated 2020).

Tests used:
[1] = test system: A/Puerto Rico/8/34 (A/H1N1) influenza virus isolates; format: cell-based
[2] = test system: A/California/07/2009 (A/H1N1) influenza virus isolates; format: cell-based

**Q.** How did the EC50 shift [1] turn out when `CC(C)(C)[C@@H](CC(=O)O)Nc1nc(-c2c[nH]c3ncc(F)cc23)ncc1F` [Compound 1] was run?
**A.** Its EC50 shift is 286 fold.

**Q.** What about the EC50 shift [2] of the same compound?
**A.** Its EC50 shift is 500 fold.
